Experimental data taken from the supplement of paper PMC10307832.

Experiments:
Assay in all cases: relative viability (nuclei count vs DMSO), 5 days (fraction); higher = more cells survive
[1] = compound: CN1CCN(CC1)C2=CC(=C(C=C2)NC3=NC(=C(S3)C(=O)C4=C(C=CC=C4Cl)Cl)N)OC [XMD14-99] + O=C(c1cc(Cc2n[nH]c(=O)c3ccccc23)ccc1F)N1CCN(C(=O)C2CC2)CC1 [Olaparib] (partner 8 µM)
Outline: (§1)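 Five library-drug doses in √10 steps were combined with a fixed anchor-drug dose, or a single drug was given alone, by pin tool to lung cancer cell lines in 1536-well plates the day after seeding. Nuclei were stained and counted after 5 days. Relative viability is the nuclei count in treated wells over that in vehicle wells, taken as the median of duplicate plates.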

[2] = compound: N[C@@H]1CCCN(c2c(/C=C3\SC(=O)NC3=O)cccc2-c2ccccc2)C1 [AZD1208] + Nc1ncn([C@H]2C[C@H](O)[C@@H](CO)O2)c(=O)n1 [Decitabine] (partner 2 µM)
Outline: as §1

[3] = compound: CN1CCN(CC1)C2=CC(=C(C=C2)NC3=NC(=C(S3)C(=O)C4=C(C=CC=C4Cl)Cl)N)OC [XMD14-99] + CS(=O)(=O)CCNCc1ccc(-c2ccc3ncnc(Nc4ccc(OCc5cccc(F)c5)c(Cl)c4)c3c2)o1 [Lapatinib] (partner 2 µM)
Outline: as §1

[4] = compound: N[C@@H]1CCCN(c2c(/C=C3\SC(=O)NC3=O)cccc2-c2ccccc2)C1 [AZD1208] + Cc1cc(Nc2cc(N3CCN(C)CC3)nc(Sc3ccc(NC(=O)C4CC4)cc3)n2)n[nH]1 [Tozasertib] (partner 0.1 µM)
Outline: as §1

Cell Line	relative viability ([1]; first compound 0.08 µM)	relative viability ([1]; first compound 0.8 µM)	relative viability ([1]; first compound 2.53 µM)	relative viability ([1]; first compound 8 µM)	relative viability ([2]; first compound 0.08 µM)	relative viability ([2]; first compound 0.253 µM)	relative viability ([2]; first compound 0.8 µM)	relative viability ([2]; first compound 2.53 µM)	relative viability ([2]; first compound 8 µM)	relative viability ([3]; first compound 0.08 µM)	relative viability ([3]; first compound 0.8 µM)	relative viability ([3]; first compound 2.53 µM)	relative viability ([3]; first compound 8 µM)	relative viability ([4]; first compound 0.08 µM)	relative viability ([4]; first compound 0.253 µM)	relative viability ([4]; first compound 0.8 µM)	relative viability ([4]; first compound 2.53 µM)	relative viability ([4]; first compound 8 µM)
NCI-H1944	0.448	0.404	0.397	0.283	0.42	0.437	0.467	0.355	0.372	0.748	0.828	0.843	0.613	0.242	0.225	0.226	0.214	0.202
NCI-H1975	0.705	0.861	0.743	0.522	0.356	0.412	0.357	0.377	0.284	0.906	0.938	0.801	0.727	0.735	0.712	0.736	0.829	0.639
NCI-H1993	1.11	0.942	0.943	0.793	0.526	0.586	0.613	0.5	0.468	0.881	0.767	0.749	0.745	0.667	0.52	0.526	0.566	0.543
NCI-H2009	0.662	0.835	0.656	0.538	0.41	0.374	0.346	0.39	0.336	1.03	0.997	0.834	0.666	0.696	0.785	0.667	0.684	0.597
NCI-H2023	0.442		0.311	0.122	0.232	0.193	0.199	0.206	0.225	0.737	0.989	0.828	0.372	0.389	0.235	0.254	0.219	0.181
NCI-H2085	0.773	0.694	0.718	0.605	0.555	0.491	0.587	0.544	0.449	0.76	0.794	0.735	0.693	0.811	0.858	0.714	0.868	0.771
NCI-H2087	0.506	0.476	0.515	0.382	0.229	0.307	0.258	0.236	0.25	1.07	1.08	0.842	0.702	0.245	0.2	0.264	0.209	0.212
NCI-H2126	0.96	0.87	0.736	0.759	0.563	0.641	0.523	0.501	0.475	0.77	0.756	0.765	0.701	0.743	0.784	0.816	0.632	0.66
NCI-H2170	0.543	0.565	0.537	0.466	0.439	0.498	0.417	0.481	0.369	0.263	0.27	0.245	0.259	0.718	0.707	0.614	0.447	0.306
